Assay results reported in patent US20080070954A1, “Acylurea Connected And Sulfonylurea Connected Hydroxamates” (S*BIO PTE LTD., priority 2003, published 2008).

Legend:
[1] = biological target: T1, HDAC1 enzyme (recombinant GST-HDAC1) (Homo sapiens, UniProt Q13547); test: In vitro HDAC assay for determination of IC50 values (BIOMOL fluorescent-based), HDAC1; format: biochemical; conditions: 600 nM HDAC1 enzyme, 500 μM Flur de lys generic substrate, 2 h room temperature
T1 construct: Amplification of human HDAC1 and HDAC8 coding region from this cDNA library; made in house; host or cells: SF9 insect cells (baculovirus, pDEST20 vector)
Protocol: Human cDNA library was prepared using cultured SW620 cells. Amplification of human HDAC1 and HDAC8 coding region from this cDNA library was cloned separately into the baculovirus expression pDEST20 vector and pFASTBAC vector respectively (GATEWAY Cloning Technology, Invitrogen Pte Ltd). The pDEST20-HDAC1 and pFASTBAC-HTGST-HDAC8 constructs were confirmed by DNA sequencing. Recombinant baculovirus was prepared using the Bac-To-Bac method following the manufacturer's instruction (Invitrogen Pte Ltd). Baculovirus titer was determined by plaque assay to be about 10^8 PFU/ml.
(§1) Expression of GST-HDAC1 or HTGST-HDAC8 was done by infecting SF9 cells (Invitrogen Pte Ltd) with pDEST20-HDAC1 or pFASTBAC-GST-HDAC8 baculovirus at MOI=1 for 48 h. Soluble cell lysate was incubated with pre-equilibrated Glutathione Sepharose 4B beads (Amersham) at 4° C. for 2 h. The beads were washed with PBS buffer for 3 times. The GST-HDAC1 protein or GST-HDAC8 protein was eluted by elution buffer containing 50 mM Tris, pH8.0, 150 mM NaCl, 1% Triton X-100 and 10 mM or 20 mM reduced Glutathione. The purified GST-HDAC1 protein or purified GST-HDAC8 protein was dialyzed with HDAC storage buffer containing 10 mM Tris, pH7.5, 100 mM NaCl and 3 mM MgCl2. 20% Glycerol was added to purified GST-HDAC1 protein or purified GST-HDAC8 before storage at −80° C.
The assay has been carried out in 96 well format and the BIOMOL fluorescent-based HDAC activity assay has been applied. The reaction composed of assay buffer, containing 25 mM Tris pH 7.5, 137 mM NaCl, 2.7 mM KCl, 1 mM MgCl2, 1 mg/ml BSA, tested compounds, 500 nM HDAC8 enzyme or 600 nM HDAC1 enzyme, 200 μM Flur de lys p53 peptide substrate for HDAC8 enzyme or 500 μM Flur de lys generic substrate for HDAC1 enzyme and subsequently was incubated at room temperature for 2 h. Flur de lys Developer was added and the reaction was incubated for 10 min. Briefly, deacetylation of the substrate sensitizes it to the developer, which then generates a fluorophore. The fluorophore is excited with 360 nm light and the emitted light (460 nm) is detected on a fluorometric plate reader (Tecan Ultra Microplate detection system, Tecan Group Ltd.).
(§2) The analytical software, Prism 3.0® (GraphPad Software Inc) has been used to generate IC50 from a series of data.

[2] = biological target: T2, HDAC8 enzyme (recombinant GST-HDAC8) (Homo sapiens, UniProt Q9BY41); test: In vitro HDAC assay for determination of IC50 values (BIOMOL fluorescent-based), HDAC8; format: biochemical; conditions: 500 nM HDAC8 enzyme, 200 μM Flur de lys p53 peptide substrate, 2 h room temperature
T2 construct: Amplification of human HDAC1 and HDAC8 coding region from this cDNA library; made in house; host or cells: SF9 insect cells (baculovirus, pFASTBAC vector)
T2 sequence (Q9BY41 1-377): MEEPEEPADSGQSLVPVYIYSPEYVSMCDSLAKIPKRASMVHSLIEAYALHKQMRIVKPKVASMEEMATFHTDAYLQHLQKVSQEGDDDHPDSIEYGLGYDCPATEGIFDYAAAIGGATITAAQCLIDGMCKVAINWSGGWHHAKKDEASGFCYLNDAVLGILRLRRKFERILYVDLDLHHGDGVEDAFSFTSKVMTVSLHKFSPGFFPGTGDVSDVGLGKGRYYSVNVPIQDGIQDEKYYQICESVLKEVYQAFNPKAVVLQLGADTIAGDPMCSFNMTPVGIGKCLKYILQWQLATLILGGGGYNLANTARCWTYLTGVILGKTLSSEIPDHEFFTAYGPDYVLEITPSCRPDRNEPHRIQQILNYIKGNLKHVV
Protocol: Human cDNA library was prepared using cultured SW620 cells. Amplification of human HDAC1 and HDAC8 coding region from this cDNA library was cloned separately into the baculovirus expression pDEST20 vector and pFASTBAC vector respectively (GATEWAY Cloning Technology, Invitrogen Pte Ltd). […] Recombinant baculovirus was prepared using the Bac-To-Bac method following the manufacturer's instruction (Invitrogen Pte Ltd).
as §1
The assay has been carried out in 96 well format and the BIOMOL fluorescent-based HDAC activity assay has been applied. […] Flur de lys Developer was added and the reaction was incubated for 10 min. Briefly, deacetylation of the substrate sensitizes it to the developer, which then generates a fluorophore. The fluorophore is excited with 360 nm light and the emitted light (460 nm) is detected on a fluorometric plate reader (Tecan Ultra Microplate detection system, Tecan Group Ltd.).
as §2

[3] = tested on: Ramos Burkitt-lymphoma cells; test: Apoptosis assay (Annexin V / PI staining, FACS); format: cell-based; conditions: 48 hr after treatment with 10 μM
From the text: In various therapies such as for proliferative disorders like cancer, the selective induction of apoptosis in proliferating cells such as tumor cells is one of the desirable approaches, and can be mediated by treatment with various anti-proliferative compounds [Blagosklonny M V, Oncogene, 23(16): 2967 (2004); Kaufmann and Earnshaw, Exp Cell Res. 256(1): 42-9 (2000)]. Programmed cell death or apoptosis is the cellular response to stress factors such as DNA damage introduced during conventional anti-cancer treatment. The concerted sequence of events during apoptosis, clearly differentiate this pathway from a non-coordinated form of cell death called necrosis. During the course of apoptosis, characteristic phenotypical cellular changes occur, which include the condensation of chromatin, the shrinkage of cells and finally the fragmentation of chromosomal DNA. One of the very early changes caused by apoptotic events occurs in the phospholipids bilayer of the plasma membrane. The phospholipid phosphatidylserine is translocated from the inner to the outer side of the plasma-membrane and, as a result, is exposed to the extracellular space. One way of detecting early apoptotic cells is to determine the amount of phosphatidyl-serine at the extracellular side of the plasma-membrane which is accomplished by the standard flow cytometric method of Annexin V staining. […]

[4] = tested on: Colo205 human colon cancer cell line; test: Cell-based proliferation assay for determination of GI50 values, Colo205; conditions: COLO 205, Colo205 cells, 96 h treatment, cyquant assay, read-out: Colo 205 Gl50
Protocol: (§3) Human colon cancer cell lines (Colo205) and human breast cancer cell lines (MDA-MB435 and MDA-MB231) were obtained from ATCC. Colo205 cells were cultivated in RPMI 1640 containing 2 mM L-Glutamine, 5% FBS, 1.0 mM Na Pyruvate. MDA-MB231 cells were cultivated in RPMI 1640 containing 2 mM L-glutamine, 5% FBS. MDA-MB435 cells were cultivated in DMEM containing 2 mM L-Glutamine, 5% FBS. Colo205 cells were seeded in 96-wells plate at 5000 cells per well respectively. MDA-MB435 and MDA-MB231 cells were seeded in 96-wells plate at 6000 cells per well. The plates were incubated at 37° C., 5% CO2, for 24 h. Cells were treated with compounds at various concentrations for 96 h. Cell growth was then monitored using cyquant cell proliferation assay (Invitrogen Pte Ltd). Dose response curves were plotted to determine GI50 values for the compounds using XL-fit (ID Business Solution, Emeryville, Calif.).

[5] = tested on: MDA-MB231 human breast cancer cell line; test: Cell-based proliferation assay for determination of GI50 values, MDA-MB231; conditions: MDA-MB231 cells, 96 h treatment, cyquant assay
Protocol: as §3

[6] = tested on: MDA-MB435 human breast cancer cell line; test: Cell-based proliferation assay for determination of GI50 values, MDA-MB435; conditions: MDA-MB435 cells, 96 h treatment, cyquant assay
Protocol: as §3

[7] = tested on: acetylated histone H3 in Colo205 cells; test: Histone acetylation assay (western blot), histone H3; format: cell-based, human; design: key: “Active” means accumulation of acetylated histone was observed when compared with control (without compound); conditions: Colo205 cells, 0.1, 1, 5 and 10 μM, 24 h
Protocol: (§4) A hallmark of histone deacetylase (HDAC) inhibition is the increase in the acetylation level of histones. Histone acetylation, including H3, H4, H2A and H2B can be detected by immuno-blotting (western-blot). Colo205 cells, approximately 1.5×10^6 cells/10 cm dish, were seeded in the previously described medium, cultivated for 24 h and subsequently treated with HDAC inhibitory agents at 0.1, 1, 5 and 10 μM final concentration. After 24 h, cells were harvested and lysed according to the instruction from Sigma Mammalian Cell Lysis Kit. The protein concentration was quantified using BCA method (Sigma Pte Ltd). The protein lysate was separated using 4-12% bis-tris SDS-PAGE gel (Invitrogen Pte Ltd) and was transferred onto PVDF membrane (BioRad Pte Ltd). The membrane was probed separately using primary antibody specific for acetylated H3, acetylated H4 or acetylated H2A (Upstate Pte Ltd). The detection antibody, goat anti rabbit antibody conjugated with Horse radish peroxidase (HRP) was used according to the manufacturer instruction (Pierce Pte Ltd). After removing the detection antibody from the membrane, an enhanced chemiluminescent substrate for detection of HRP (Pierce Pte Ltd) was added onto the membrane. After removing the substrate, the membrane was exposed to an X-ray film (Kodak) for 1 sec-20 mins. The X-ray film was developed using the X-ray film processor. The density of each band observed on the developed film could be analysed using UVP Bioimaging software (UVP, Inc, Upland, Calif.). The values were then normalized against the density of actin in the corresponding samples to obtain the expression of the protein.

[8] = tested on: acetylated histone H4 in Colo205 cells; test: Histone acetylation assay (western blot), histone H4; format: cell-based, human; design: key: “Active” means accumulation of acetylated histone was observed when compared with control (without compound); conditions: Colo205 cells, 0.1, 1, 5 and 10 μM, 24 h
Protocol: as §4

[9] = tested on: acetylated histone H2A in Colo205 cells; test: Histone acetylation assay (western blot), histone H2A; format: cell-based, human; design: key: “Active” means accumulation of acetylated histone was observed when compared with control (without compound); conditions: Colo205 cells, 0.1, 1, 5 and 10 μM, 24 h
Protocol: as §4, with “After removing the substrate, the membrane was exposed to an X-ray film (Kodak) for 1 sec-20 mins. The X-ray film was developed using the X-ray film processor.” left out, “The values were then normalized against the density of actin in the corresponding samples to obtain the expression of the protein.” left out

[10] = tested on: acetylated histone H2B in Colo205 cells; test: Histone acetylation assay (western blot), histone H2B; format: cell-based, human; design: key: “Active” means accumulation of acetylated histone was observed when compared with control (without compound); conditions: Colo205 cells, 0.1, 1, 5 and 10 μM, 24 h
Protocol: as §4, with “After removing the substrate, the membrane was exposed to an X-ray film (Kodak) for 1 sec-20 mins. The X-ray film was developed using the X-ray film processor.” left out, “The values were then normalized against the density of actin in the corresponding samples to obtain the expression of the protein.” left out

T1 sequence (Q13547 whole entry): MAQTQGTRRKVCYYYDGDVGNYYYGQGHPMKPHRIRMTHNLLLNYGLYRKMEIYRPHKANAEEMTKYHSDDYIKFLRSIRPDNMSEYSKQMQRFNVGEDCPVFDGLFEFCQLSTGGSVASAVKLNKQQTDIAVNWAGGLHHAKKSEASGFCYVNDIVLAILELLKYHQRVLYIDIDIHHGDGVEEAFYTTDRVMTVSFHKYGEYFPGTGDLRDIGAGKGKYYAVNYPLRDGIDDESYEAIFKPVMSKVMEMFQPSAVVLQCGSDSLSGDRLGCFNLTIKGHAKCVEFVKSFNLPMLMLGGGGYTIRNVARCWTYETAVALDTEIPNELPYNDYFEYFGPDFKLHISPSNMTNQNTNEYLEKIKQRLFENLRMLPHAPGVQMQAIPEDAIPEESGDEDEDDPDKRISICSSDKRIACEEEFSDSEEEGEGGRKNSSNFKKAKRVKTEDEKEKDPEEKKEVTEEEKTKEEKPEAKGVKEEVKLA

| SMILES | IC50 [1] | IC50 [2] | percentage of late apoptotic cells [3] | GI50 [4] | MDA-MB231 Gl50 [5] | MDA-MB435 Gl50 [6] | Histone 3 acetylation [7] | Histone 4 acetylation [8] | Hisotne 2A acetylation [9] | Histone 2B acetylation [10] |
| --- | --- | --- | --- | --- | --- | --- | --- | --- | --- | --- |
| Cc1ccc(S(=O)(=O)NC(=O)Nc2cccc(/C=C/C(=O)NO)c2)cc1 [Example 3, N-Hydroxy-3-{3-[3-(4-methylbenzenesulfonyl)ureido]-phenyl}-acrylamide] | 1.54 µM | 0.022 µM | 84% |  |  |  |  |  |  |  |
| O=C(CCCCCNC(=O)NC(=O)c1ccccc1)NO [Example 10, 6-(3-Benzoyl-ureido)-hexanoic acid hydroxyamide] | 0.056 µM | 1.07 µM |  | 1.89 µM | 1.03 µM | 1.79 µM | Active | Active | Active | Active |
| O=C(/C=C/c1ccc(CN(CCc2c[nH]c3ccccc23)C(=O)NC(=O)c2ccccc2)cc1)NO [Example 11, 3-(4-{3-Benzoyl-1-[2-(1H-indol-3-yl)-ethyl]-ureidomethyl}phenyl)-N-hydroxy-acrylamide] | 0.004 µM | 0.21 µM |  | 0.26 µM | 0.26 µM | 0.62 µM | Active | Active | Active | Active |
